From patent publication US11945794B2, “Nuclear transport modulators and uses thereof” (Karyopharm Therapeutics Inc., priority 2013, dated 2024)

Experiments:
[1] = test system: COLO 205 xenograft; test: COLO 205 colorectal carcinoma xenograft model; assay type: in vivo, mouse
Method: COLO 205 (CCL-222) colorectal cancer cells were obtained from ATCC. These cells were grown in RPMI-1640 medium supplemented with 10% fetal bovine serum, 1% penicillin and streptomycin. Cells were sub-cultured by transferring floating cells to a new flask and trypsinizing adherent cells before sub-culturing at a ratio of 1:4. COLO 205 cells were harvested by centrifugation and counted using a hemocytometer. Cells were resuspended in PBS at a concentration of 5×10^7 cells per mL. Cells were placed on ice, and then mixed with an equal volume of Matrigel™ (BD Biosciences CB-40234). This mixture was kept on ice and injected into the left flank of mice in a volume of 0.2 mL, equivalent to 5×10^6 cells per mouse. Thirty-two (32) SCID mice were inoculated subcutaneously in the left flank with 5×10^6 COLO 205 cells. Treatment was initiated when the tumors reached a mean volume of 103.7 mm^3 (standard deviation±30 mm^3, range 17-183 mm^3). Mice were allocated to four (4) groups of eight (8) mice such that mean tumor volume in each group was within the range of 95 to 104 mm^3. […] With the exception of 5-FU (which was given IP on days 1 and 3), all compounds were given by oral gavage. […] Animal weights and conditions were recorded daily, and tumors were measured on Mondays, Wednesdays and Fridays.

[2] = test system: anti-collagen antibody-induced arthritis; test: Collagen antibody-induced arthritis (CAIA) mouse model; assay type: in vivo
Method: On study Day 0 (study commencement), all mice were subjected to a 4 mg intravenous injection of ArthritoMAb™ antibody cocktail (MD Biosciences #51306001), followed by an intraperitoneal injection of LPS (50 μg/mouse) on study Day 3. The mice began treatment on Day 6, when the average clinical scores reached 2.
The animals were examined for signs of arthritis on study Day 0 in all paws (front left and right paws, hind left and right paws). The signs of arthritis on study Day 0 served as a baseline for the arthritis clinical score parameter. Arthritic responses were examined daily from Day 3 until Day 8, and on Days 10, 12, 15 and 18 (study termination).
Clinical signs data are presented as means±SEM (standard error of the mean). Treatment groups 2-3 were compared to vehicle group 1 using one-way ANOVA test followed by Tukey post-test. A p value of <0.05 is considered to represent a significant difference.

[3] = test system: U251MG spheroids; test: Glioblastoma spheroid assay; assay type: cell-based; conditions: 1 μM, U251MG spheroids in Matrigel, compared with control
Method: (§1) Cells (U87MG and U251MG) were detached and re-suspended at 1×10^5 cells/mL. 5,000 cells were loaded into a hanging drop plate (3D Biomatrix Cat. No.: HDP1096) and incubated for 5 days (37° C.; 5% CO2) to form spheroids. 300 μL of Matrix Gel (Corning Matrigel Cat #354234; Lot #3330622) were plated per well in a 24-well plate and incubated for 30 minutes. Spheroids were removed from the hanging drop plate and seeded into the […]™ (1 spheroid per well). Spheroids were incubated for 15 minutes and then 460 μL media was added. […] The plates were analyzed at several time points using 40× and 20× phase microscopes, and photos of the spheroids were taken.

[4] = test system: U87MG spheroids; test: Glioblastoma spheroid assay; assay type: cell-based; conditions: 1 μM, U87MG spheroids in Matrigel, compared with control
Method: as §1

NC(=O)/C(=C/n1cnc(-c2cc(C(F)(F)F)cc(C(F)(F)F)c2)n1)c1cncnc1 [Compound 124, (E)-3-(3-(3,5-bis(trifluoromethyl)phenyl)-1H-1,2,4-triazol-1-yl)-2-(pyrimidin-5-yl)acrylamide]
mean tumor volume ([1]; 5 or 15 mg/kg PO daily, SCID mice, compared to vehicle): mean tumor volume was reduced | mean tumor volume compared with standard of care ([1]; particularly 15 mg/kg PO daily, versus 5-FU): compared favorably | percentage of animals that showed clinical signs of arthritis ([2]; 20 mg/kg PO twice a week, study Day 6 (start of treatment)): 78% | percentage of animals that showed clinical signs of arthritis ([2]; 20 mg/kg PO twice a week, study Day 18): 22% | mean clinical score for all paws (arthritis scores) ([2]; 20 mg/kg or 40 mg/kg PO, compared to vehicle): reduced arthritis scores | percentage of animals that showed clinical signs of arthritis ([2]; 40 mg/kg PO twice a week, study Day 6 (start of treatment)): 88% | percentage of animals that showed clinical signs of arthritis ([2]; 40 mg/kg PO twice a week, study Day 18): 13% | spheroid cell growth [3]: shrinking of the spheroid with complete elimination of any cell growth out of the sphere | spheroid cell growth [4]: significant reduction in cell growth
